Experimental data as given in patent US11234939B2, “Dosage forms comprising a plasma kallikrein inhibitor” (KALVISTA PHARMACEUTICALS LIMITED, priority 2017, dated 2022).
One block for each molecule: values may come before it.

How the values were obtained:
[1] = Gravimetric Vapour Sorption (GVS) of Form 5; type: physicochemical; settings: 0% to 95% RH
Experimental: Form 5 is hygroscopic with a mass uptake of 23%, as determined by Gravimetric Vapour Sorption (GVS) studies. The GVS studies were performed using a Surface Measurement Systems Ltd. DVS-1 No Video, equipment #2126. The sample was loaded into a balance pan, typically 20-30 mg, and equilibrated at 0% RH. After the material was dried, the RH was increased with 10% per step for 1 hour per increment, ending at 95% RH. After completion of the sorption cycle, the sample was dried using the same method. The software used for data collection was DVSWin v3.01 No Video. Data analysis was performed using DVS Standard Analysis Suite v6.3.0 (Standard).

[2] = Polymorph stability of Form 5; type: physicochemical; settings: also on XRPD measurement
[3] = test system: LPS-induced disseminated intravascular coagulation; settings: cited from earlier work
[4] = Stability study of Form 1 on storage; type: physicochemical; settings: for Change in XRPD diffractogram on storage: after 1 month and 3 months
Experimental: A sample of Form 1 was packed in double polyethylene bags and sealed in a HDPE bottle and stored at conditions of 25° C./60% RH. The sample was reanalysed after 1 month and 3 months by XRPD (using Method B). No change in the XRPD diffractogram was observed when the sample was stored at 25° C./60% RH after either 1 month or 3 months.
Further tests on the sample of Form 1 stored at 25° C./60% RH were carried out as described in Table 1:
A second sample of Form 1 was packed in double polyethylene bags and sealed in a HDPE bottle and stored under accelerated stability conditions of 40° C./75% RH. The sample was reanalysed after 1 month and 3 months by XRPD (using Method B). No change in the XRPD diffractogram was observed when the sample was stored at 40° C./75% RH after either 1 month or 3 months.
Further tests on the sample of Form 1 stored at 40° C./75% RH were carried out as described in Table 2: […]

[5] = Gravimetric Vapour Sorption (GVS) of Form 1; type: physicochemical
Experimental: Gravimetric Vapour Sorption (GVS) data were collected using the following method: Approximately 10 mg of sample was placed into a wire-mesh vapour sorption balance pan and loaded into an ‘IgaSorp’ vapour sorption balance (Hiden Analytical Instruments). The sample was then dried by maintaining a 0% humidity environment until no further weight change was recorded. Subsequently, the sample was then subjected to a ramping profile from 0-90% RH at 10% RH increments, maintaining the sample at each step until equilibration had been attained (99% step completion). Upon reaching equilibration, the % RH within the apparatus was ramped to the next step and the equilibration procedure repeated. After completion of the sorption cycle, the sample was then dried using the same procedure. The weight change during the sorption/desorption cycles were then monitored, allowing for the hygroscopic nature of the sample to be determined.

[6] = Visual Aqueous Solubility; type: physicochemical; settings: thermodynamic from solid; 10 mg in 20 mL water
Experimental: Form 1 (10 mg) was weighed into a glass vial and water was added in […] up to 3 mL then 1 mL portions thereafter. Solubility was assessed visually following a brief period of equilibration.

[7] = Slurry Studies; type: physicochemical; settings: 90/10 IPA/water, ambient temperature, 72 hrs
Experimental: Form 1 (20 mg) was suspended in 90/10 IPA/water […] and shaken at ambient temperature for 72 hrs. The supernatant was evaporated rather than filtered due to the small volume and the resulting solid was examined by XRPD (FIG. 5).

[8] = test system: rats; settings: systemic administration; cited from earlier work
[9] = molecular target: T1, Human FXIa (Homo sapiens, UniProt P03951); assay: Determination of the % Inhibition for FXIa; type: biochemical; settings: 40 μM test compound, 25° C.
T1 construct: purchased Enzyme Research Laboratories
Experimental: (§1) FXIa inhibitory activity in vitro was determined using standard published methods (see e.g. Johansen et al., Int. J. Tiss. Reac. 1986, 8, 185; Shori et al., Biochem. Pharmacol., 1992, 43, 1209; Sturzebecher et al., Biol. Chem. Hoppe-Seyler, 1992, 373, 1025). Human FXIa (Enzyme Research Laboratories) was incubated at 25° C. with the fluorogenic substrate Z-Gly-Pro-Arg-AFC and 40 μM of the test compound. Residual enzyme activity (initial rate of reaction) was determined by measuring the change in optical absorbance at 410 nm.

[10] = Pharmacokinetic study, single oral dose in rats; type: in vivo; settings: male, Sprague-Dawley, plasma; rat, po 10.1 mg/kg, vehicle TPGS solution (20% aq. w/v)
Experimental: A pharmacokinetic study of the compound of Formula A was performed to assess the pharmacokinetics following a single oral dose in male Sprague-Dawley rats. Two rats were given a single po dose of 5 mL/kg of a nominal 2 mg/mL (10 mg/kg) composition of test compound in vehicle. Following dosing, blood samples were collected over a period of […]. Sample times were 5, 15 and 30 minutes then 1, 2, 4, 6, 8 and 12 hrs. Following collection, blood samples were centrifuged and the plasma fraction analysed for concentration of test compound by LCMS.

[11] = molecular target: T2, Human KLK1 (Homo sapiens, UniProt P06870); assay: Determination of the IC50 for KLK1; type: biochemical; settings: 25° C., substrate H-DVal-Leu-Arg-AFC
T2 construct: purchased Callbiochem
Experimental: as §1, with “KLK1” for “FXIa”, “Stürzebecher” for “Sturzebecher”, “KLK1 (Callbiochem)” for “FXIa (Enzyme Research Laboratories)”, “H-DVal-Leu-Arg-AFC” for “Z-Gly-Pro-Arg-AFC”, “various concentrations” for “40 μM”, “nm and the IC50 value for the test compound was determined.” for “nm.”

[12] = test system: blood; settings: blood contacted with the inhibitor; cited from earlier work
[13] = test system: intrinsic pathway of coagulation; settings: in vitro; cited from earlier work

T1 sequence (P03951 388-625 limits assumed): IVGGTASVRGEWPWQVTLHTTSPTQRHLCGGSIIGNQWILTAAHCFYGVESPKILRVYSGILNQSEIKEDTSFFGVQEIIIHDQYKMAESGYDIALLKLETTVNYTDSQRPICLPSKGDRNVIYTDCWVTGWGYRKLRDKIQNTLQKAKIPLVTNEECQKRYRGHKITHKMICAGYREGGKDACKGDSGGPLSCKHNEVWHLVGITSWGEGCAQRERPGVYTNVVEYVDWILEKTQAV
T1 sequence (P03951 19-387 partner limits assumed): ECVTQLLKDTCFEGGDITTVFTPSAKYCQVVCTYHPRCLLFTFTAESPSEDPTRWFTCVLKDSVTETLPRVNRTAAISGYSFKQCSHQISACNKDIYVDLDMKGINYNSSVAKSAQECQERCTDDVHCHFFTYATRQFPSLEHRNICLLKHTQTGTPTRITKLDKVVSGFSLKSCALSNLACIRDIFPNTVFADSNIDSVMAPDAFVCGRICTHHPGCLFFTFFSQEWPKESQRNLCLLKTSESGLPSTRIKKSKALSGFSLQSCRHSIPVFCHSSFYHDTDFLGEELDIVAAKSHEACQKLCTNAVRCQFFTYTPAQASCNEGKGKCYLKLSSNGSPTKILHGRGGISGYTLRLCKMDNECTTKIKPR
T2 sequence (P06870 25-262): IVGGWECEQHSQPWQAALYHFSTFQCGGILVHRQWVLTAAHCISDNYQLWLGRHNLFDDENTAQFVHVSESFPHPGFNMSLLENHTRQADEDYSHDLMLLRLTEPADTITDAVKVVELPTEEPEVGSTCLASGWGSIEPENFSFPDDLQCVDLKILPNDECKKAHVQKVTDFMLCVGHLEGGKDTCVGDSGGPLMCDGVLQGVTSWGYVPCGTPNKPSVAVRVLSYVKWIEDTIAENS

GVS (mass uptake %) [1]: 23%
Polymorph conversion over time [2]: converts into polymorph Form 3
Molecule: COCc1nn(Cc2ccc(Cn3ccccc3=O)cc2)cc1C(=O)NCc1nccc(OC)c1F [Form 5, N-[(3-Fluoro-4-methoxypyridin-2-yl)methyl]-3-(methoxymethyl)-1-({4-[(2-oxopyridin-1-yl)methyl]phenyl}methyl)pyrazole-4-carboxamide]

Molecule: Cl.NCC1CCC(C(=O)N[C@@H](Cc2ccccc2)C(=O)Nc2ccc(CC(=O)O)cc2)CC1 (some centres unmarked) [PKSI-527]
Decrease in platelet count and fibrinogen level and increase in FDP level [3]: significantly suppressed

Appearance ([4]; 25° C./60% RH, 1 month): Off-white
Assay by HPLC (on an anhydrous and solvent free basis) ([4]; 25° C./60% RH, 1 month): 99.5 % w/w
DSC Tonset ([4]; 25° C./60% RH, 1 month): 151.1 °C
DSC Tpeak ([4]; 25° C./60% RH, 1 month): 152.4 °C
HPLC assay (on an as is basis) ([4]; 25° C./60% RH, 1 month): 99.4 % w/w
Purity by HPLC ([4]; 25° C./60% RH, 1 month): 99.62 area %
Solid form of compound A by XRPD ([4]; 25° C./60% RH, 1 month): Conforms
Total impurities ([4]; 25° C./60% RH, 1 month): 0.38 area %
Water by Karl Fischer analysis ([4]; 25° C./60% RH, 1 month): <0.1 % w/w
Appearance ([4]; 25° C./60% RH, 3 months): Off-white
Assay by HPLC (on an anhydrous and solvent free basis) ([4]; 25° C./60% RH, 3 months): 99.6 % w/w
DSC Tonset ([4]; 25° C./60% RH, 3 months): 150.8 °C
DSC Tpeak ([4]; 25° C./60% RH, 3 months): 152.2 °C
HPLC assay (on an as is basis) ([4]; 25° C./60% RH, 3 months): 99.5 % w/w
Purity by HPLC ([4]; 25° C./60% RH, 3 months): 99.70 area %
Solid form of compound A by XRPD ([4]; 25° C./60% RH, 3 months): Conforms
Total impurities ([4]; 25° C./60% RH, 3 months): 0.30 area %
Water by Karl Fischer analysis ([4]; 25° C./60% RH, 3 months): <0.1 % w/w
Appearance ([4]; 25° C./60% RH, Initial): Off-white
Assay by HPLC (on an anhydrous and solvent free basis) ([4]; 25° C./60% RH, Initial): 101.0 % w/w
DSC Tonset ([4]; 25° C./60% RH, Initial): 151.3 °C
DSC Tpeak ([4]; 25° C./60% RH, Initial): 152.9 °C
HPLC assay (on an as is basis) ([4]; 25° C./60% RH, Initial): 100.9 % w/w
Purity by HPLC ([4]; 25° C./60% RH, Initial): 99.70 area %
Solid form of compound A by XRPD ([4]; 25° C./60% RH, Initial): Conforms
Total impurities ([4]; 25° C./60% RH, Initial): 0.30 area %
Water by Karl Fischer analysis ([4]; 25° C./60% RH, Initial): <0.1 % w/w
Change in XRPD diffractogram on storage ([4]; 25° C./60% RH): no change
Appearance ([4]; 40° C./75% RH, 1 month): Off-white
Assay by HPLC (on an anhydrous and solvent free basis) ([4]; 40° C./75% RH, 1 month): 99.5 % w/w
DSC Tonset ([4]; 40° C./75% RH, 1 month): 151.1 °C
DSC Tpeak ([4]; 40° C./75% RH, 1 month): 152.3 °C
HPLC assay (on an as is basis) ([4]; 40° C./75% RH, 1 month): 99.4 % w/w
Purity by HPLC ([4]; 40° C./75% RH, 1 month): 99.57 area %
Solid form of compound A by XRPD ([4]; 40° C./75% RH, 1 month): Conforms to
Total impurities ([4]; 40° C./75% RH, 1 month): 0.43 area %
Water by Karl Fischer analysis ([4]; 40° C./75% RH, 1 month): <0.1 % w/w
Appearance ([4]; 40° C./75% RH, 3 months): Off-white
Assay by HPLC (on an anhydrous and solvent free basis) ([4]; 40° C./75% RH, 3 months): 100.0 % w/w
DSC Tonset ([4]; 40° C./75% RH, 3 months): 150.6 °C
DSC Tpeak ([4]; 40° C./75% RH, 3 months): 152.5 °C
HPLC assay (on an as is basis) ([4]; 40° C./75% RH, 3 months): 99.9 % w/w
Purity by HPLC ([4]; 40° C./75% RH, 3 months): 99.71 area %
Solid form of compound A by XRPD ([4]; 40° C./75% RH, 3 months): Conforms to
Total impurities ([4]; 40° C./75% RH, 3 months): 0.29 area %
Water by Karl Fischer analysis ([4]; 40° C./75% RH, 3 months): 0.1 % w/w
Appearance ([4]; 40° C./75% RH, Initial): Off-white
Assay by HPLC (on an anhydrous and solvent free basis) ([4]; 40° C./75% RH, Initial): 101.0 % w/w
DSC Tonset ([4]; 40° C./75% RH, Initial): 151.3 °C
DSC Tpeak ([4]; 40° C./75% RH, Initial): 152.9 °C
HPLC assay (on an as is basis) ([4]; 40° C./75% RH, Initial): 100.9 % w/w
Purity by HPLC ([4]; 40° C./75% RH, Initial): 99.70 area %
Solid form of compound A by XRPD ([4]; 40° C./75% RH, Initial): Conforms to
Total impurities ([4]; 40° C./75% RH, Initial): 0.30 area %
Water by Karl Fischer analysis ([4]; 40° C./75% RH, Initial): <0.1 % w/w
Change in XRPD diffractogram on storage ([4]; 40° C./75% RH): no change
%-Wt(dry basis) ([5]; adsorption, 0.0335 %-RH): 0.04722%
%-Wt(dry basis) ([5]; adsorption, 9.9791 %-RH): 0.23%
%-Wt(dry basis) ([5]; adsorption, 20.0169 %-RH): 0.3541%
%-Wt(dry basis) ([5]; adsorption, 30.0091 %-RH): 0.7126%
%-Wt(dry basis) ([5]; adsorption, 39.9998 %-RH): 0.825%
%-Wt(dry basis) ([5]; adsorption, 49.991 %-RH): 1.207%
%-Wt(dry basis) ([5]; adsorption, 59.9808 %-RH): 1.699%
%-Wt(dry basis) ([5]; adsorption, 70.0195 %-RH): 1.912%
%-Wt(dry basis) ([5]; adsorption, 80.0136 %-RH): 2.186%
%-Wt(dry basis) ([5]; adsorption, 90.0039 %-RH): 3.226%
%-Wt(dry basis) ([5]; desorption, 0.0335 %-RH): 0.000368%
%-Wt(dry basis) ([5]; desorption, 4.9801 %-RH): 0.1269%
%-Wt(dry basis) ([5]; desorption, 15.0203 %-RH): 0.5017%
%-Wt(dry basis) ([5]; desorption, 25.0135 %-RH): 0.7008%
%-Wt(dry basis) ([5]; desorption, 35.0052 %-RH): 1.017%
%-Wt(dry basis) ([5]; desorption, 44.9954 %-RH): 1.525%
%-Wt(dry basis) ([5]; desorption, 54.9837 %-RH): 1.685%
%-Wt(dry basis) ([5]; desorption, 64.9759 %-RH): 1.865%
%-Wt(dry basis) ([5]; desorption, 75.0151 %-RH): 2.116%
%-Wt(dry basis) ([5]; desorption, 85.0063 %-RH): 2.547%
Hygroscopicity (GVS) ([5]; up to 70% relative humidity): absence of significant hygroscopicity
solubility [6]: < 500 µg/mL
XRPD after slurry compared with FIG. 1a [7]: tendency to form hydrate(s)
Molecule: COCc1nn(Cc2ccc(Cn3ccccc3=O)cc2)cc1C(=O)NCc1nccc(OC)c1F [Form 1, N-[(3-Fluoro-4-methoxypyridin-2-yl)methyl]-3-(methoxymethyl)-1-({4-[(2-oxopyridin-1-yl)methyl]phenyl}methyl)pyrazole-4-carboxamide]

Molecule: N=C(N)c1ccc(CNC(=O)c2cnn(Cc3ccccc3)c2)cc1 [ASP-440]
Hematoma expansion [8]: reduced

inhibition at 40 µM [9]: 0%
Cmax [10]: 1940 ng/mL
Tmax [10]: 1.17 h
IC50 [11]: > 40 µM
Molecule: COCc1nn(Cc2ccc(Cn3ccccc3=O)cc2)cc1C(=O)NCc1nccc(OC)c1F [compound of Formula A, N-[(3-fluoro-4-methoxypyridin-2-yl)methyl]-3-(methoxymethyl)-1-({4-[(2-oxopyridin-1-yl)methyl]phenyl}methyl)pyrazole-4-carboxamide]

Molecule: Ecallantide
Activated clotting time (ACT) [12]: increase
Contact activated induced coagulation [13]: delay
